Reference: PMC3714282, “Pharmacometabolomics of Response to Sertraline and to Placebo in Major Depressive Disorder – Possible Role for Methoxyindole Pathway” (PLoS ONE, 2013)

System: serum metabolites (tryptophan, tyrosine, purine pathways, antioxidants)
Assay: LCECA metabolomic profiling of serum: change from baseline at week 1 and week 4 (all, responders, non-responders)
Assay type: in vivo, human
From the text: Study participants were outpatients, 18–65 years of age, from various clinical sites across the United States. […] A complete description of the inclusion and exclusion used in this study can be found in Table S1. The study protocol was developed in accordance with the principles of the Declaration of Helsinki. All patients provided written informed consent. The study was sponsored and monitored by Pfizer, Inc. Each site's institutional review board approved and oversaw the study. The primary outcome measure was the HAMD17, used to assess depressive symptom severity. Measures were gathered at baseline, and weeks 1 and 4 of treatment at the patient's visits. Serum samples were collected using standard protocol at baseline, week 1 and week 4 of treatment at the clinic visits. Whole blood was collected in serum collection tubes and inverted 5–8 times. Serum samples were allowed to clot at room temperature for 60 minutes and then centrifuged at 1,300×g for 15 minutes. Following centrifugation supernatant was frozen at −80°C until analysis.
Samples were analyzed using a liquid chromatography electrochemical array (LCECA) platform that has been extensively validated and used in our prior studies in neurodegenerative and psychiatric disorders [30]–[34]. The method includes multiple compounds from the tyrosine, tryptophan, sulfur amino acids and purine pathways, and markers of oxidative stress and protection (for the list of metabolites and abbreviations see Table 1). Levels of 5-Methoxytryptamine (5-MTPM) were measured using a gas chromatography time-of-flight-mass spectrometry (GCTOF-MS) platform. Samples were prepared for analysis as previously described. During the sample preparation, pools were created from equal volumes of subaliquots of all samples. Concentrations of metabolites in the individual samples were expressed as a percentage of the concentration of those metabolites in the averaged pool.
Data preprocessing: We first removed the metabolites that have more than 40% missing values. […] Principal components analysis (PCA; SIMCA-P+12.0) was used to identify outliers. The analysis was performed for each time point. […] Subjects with ≥3 standard deviations away from the center of data cloud within two principal components (PC's) scores scatter plot were considered outliers and were removed from further analysis.
These analyses were conducted separately for the sertraline and placebo groups. Between groups t-tests were used to compare baseline to one week and baseline to four week change scores between the sertraline and placebo groups.
Signatures of response to sertraline and placebo were identified by using paired t-tests to compare week 4 metabolite levels to baseline metabolite levels in the responders and non-responders to therapy. […] These analyses were also performed to evaluate changes in ratios of individual metabolites within (e.g., 5-HT/5-HTP) and between branches of tryptophan pathway (e.g., KYN/MEL).

[1] = after four week of treatment, non-responders
[2] = after four week of treatment, responders
[3] = after one week of treatment, non-responders
[4] = serum, four weeks, non-responders to sertraline
[5] = serum, four weeks, poor response to sertraline
[6] = serum, four weeks, responders to sertraline
[7] = serum, log-transformed concentration, after four weeks, sertraline group

CN[C@H]1CC[C@@H](c2ccc(Cl)c(Cl)c2)c2ccccc21 [Sertraline, sertraline]
Change of 3-OHKY (average change of log-transformed concentration) [1]: 0.013
Change of 3-OMD (average change of log-transformed concentration) [1]: -0.048
Change of 4-HBAC (average change of log-transformed concentration) [1]: 0.19
Change of 4-HPAC (average change of log-transformed concentration) [1]: 0.14
Change of 4-HPLA (average change of log-transformed concentration) [1]: 0.11
Change of 5-HIAA (average change of log-transformed concentration) [1]: -0.077
Change of 5-HT (average change of log-transformed concentration) [1]: -1.6
Change of 5-HTP (average change of log-transformed concentration) [1]: 0.24
Change of 5-MTPOL (average change of log-transformed concentration) [1]: 0.093
Change of 7-MXAN (average change of log-transformed concentration) [1]: 0.56
Change of ATOCO (average change of log-transformed concentration) [1]: 0.47
Change of CYS (average change of log-transformed concentration) [1]: -0.014
Change of DIOHMAL (average change of log-transformed concentration) [1]: 0.25
Change of DOPAC (average change of log-transformed concentration) [1]: -0.099
Change of DTOCO (average change of log-transformed concentration) [1]: 0.52
Change of GR (average change of log-transformed concentration) [1]: 0.31
Change of GRMP (average change of log-transformed concentration) [1]: -0.16
Change of GSH (average change of log-transformed concentration) [1]: -0.084
Change of HGA (average change of log-transformed concentration) [1]: 0.63
Change of HVA (average change of log-transformed concentration) [1]: 0.085
Change of HX (average change of log-transformed concentration) [1]: 0.014
Change of KYN (average change of log-transformed concentration) [1]: 0.066
Change of LD (average change of log-transformed concentration) [1]: 0.35
Change of MEL (average change of log-transformed concentration) [1]: 0.26
Change of METH (average change of log-transformed concentration) [1]: 0.3
Change of MHPG (average change of log-transformed concentration) [1]: -0.28
Change of NA-5-HT (average change of log-transformed concentration) [1]: 0.0044
Change of TRP (average change of log-transformed concentration) [1]: 0.11
Change of TRPOL (average change of log-transformed concentration) [1]: 0.053
Change of TYR (average change of log-transformed concentration) [1]: -0.11
Change of UA (average change of log-transformed concentration) [1]: -0.095
Change of VMA (average change of log-transformed concentration) [1]: 0.058
Change of XAN (average change of log-transformed concentration) [1]: -0.19
Change of XANTH (average change of log-transformed concentration) [1]: 0.098
Change of 3-OHKY (average change of log-transformed concentration) [2]: 0.071
Change of 3-OMD (average change of log-transformed concentration) [2]: 0.19
Change of 4-HBAC (average change of log-transformed concentration) [2]: 0.07
Change of 4-HPAC (average change of log-transformed concentration) [2]: 0.37
Change of 4-HPLA (average change of log-transformed concentration) [2]: 0.14
Change of 5-HIAA (average change of log-transformed concentration) [2]: -0.046
Change of 5-HT (average change of log-transformed concentration) [2]: -2.2
Change of 5-HTP (average change of log-transformed concentration) [2]: 0.014
Change of 5-MTPOL (average change of log-transformed concentration) [2]: 0.17
Change of 7-MXAN (average change of log-transformed concentration) [2]: -0.32
Change of ATOCO (average change of log-transformed concentration) [2]: 0.76
Change of CYS (average change of log-transformed concentration) [2]: 0.0094
Change of DIOHMAL (average change of log-transformed concentration) [2]: 0.47
Change of DOPAC (average change of log-transformed concentration) [2]: 0.058
Change of DTOCO (average change of log-transformed concentration) [2]: 0.88
Change of GR (average change of log-transformed concentration) [2]: -0.26
Change of GRMP (average change of log-transformed concentration) [2]: 0.23
Change of GSH (average change of log-transformed concentration) [2]: 0.096
Change of HGA (average change of log-transformed concentration) [2]: 0.21
Change of HVA (average change of log-transformed concentration) [2]: 0.12
Change of HX (average change of log-transformed concentration) [2]: -0.022
Change of KYN (average change of log-transformed concentration) [2]: 0.027
Change of LD (average change of log-transformed concentration) [2]: -0.069
Change of MEL (average change of log-transformed concentration) [2]: 0.68
Change of METH (average change of log-transformed concentration) [2]: 0.12
Change of MHPG (average change of log-transformed concentration) [2]: -0.16
Change of NA-5-HT (average change of log-transformed concentration) [2]: 0.071
Change of TRP (average change of log-transformed concentration) [2]: 0.041
Change of TRPOL (average change of log-transformed concentration) [2]: 0.068
Change of TYR (average change of log-transformed concentration) [2]: 0.14
Change of UA (average change of log-transformed concentration) [2]: -0.027
Change of VMA (average change of log-transformed concentration) [2]: -0.077
Change of XAN (average change of log-transformed concentration) [2]: -0.14
Change of XANTH (average change of log-transformed concentration) [2]: 0.0046
Change of 3-OHKY (average change of log-transformed concentration) [3]: -0.11
Change of 3-OMD (average change of log-transformed concentration) [3]: -0.082
Change of 4-HBAC (average change of log-transformed concentration) [3]: -0.44
Change of 4-HPAC (average change of log-transformed concentration) [3]: 0.18
Change of 4-HPLA (average change of log-transformed concentration) [3]: 0.055
Change of 5-HIAA (average change of log-transformed concentration) [3]: -0.19
Change of 5-HT (average change of log-transformed concentration) [3]: -0.72
Change of 5-HTP (average change of log-transformed concentration) [3]: -0.14
Change of 5-MTPOL (average change of log-transformed concentration) [3]: -0.027
Change of 7-MXAN (average change of log-transformed concentration) [3]: 0.16
Change of ATOCO (average change of log-transformed concentration) [3]: 0.084
Change of CYS (average change of log-transformed concentration) [3]: -0.056
Change of DIOHMAL (average change of log-transformed concentration) [3]: 0.17
Change of DOPAC (average change of log-transformed concentration) [3]: -0.18
Change of DTOCO (average change of log-transformed concentration) [3]: 0.024
Change of GR (average change of log-transformed concentration) [3]: -0.47
Change of GRMP (average change of log-transformed concentration) [3]: -0.012
Change of GSH (average change of log-transformed concentration) [3]: -0.0084
Change of HGA (average change of log-transformed concentration) [3]: 0.34
Change of HVA (average change of log-transformed concentration) [3]: 0.0025
Change of HX (average change of log-transformed concentration) [3]: -0.066
Change of KYN (average change of log-transformed concentration) [3]: -0.11
Change of LD (average change of log-transformed concentration) [3]: 0.053
Change of MEL (average change of log-transformed concentration) [3]: 0.3
Change of METH (average change of log-transformed concentration) [3]: 0.16
Change of MHPG (average change of log-transformed concentration) [3]: -0.072
Change of NA-5-HT (average change of log-transformed concentration) [3]: 0.027
Change of TRP (average change of log-transformed concentration) [3]: -0.022
Change of TRPOL (average change of log-transformed concentration) [3]: 0.0024
Change of TYR (average change of log-transformed concentration) [3]: -0.073
Change of UA (average change of log-transformed concentration) [3]: -0.095
Change of VMA (average change of log-transformed concentration) [3]: 0.12
Change of XAN (average change of log-transformed concentration) [3]: -0.18
Change of XANTH (average change of log-transformed concentration) [3]: 0.11
Change in 5-HT levels [4]: significantly reduced
Change in 5-MTPOL levels [4]: not significantly changed
Change in DIOHMAL levels [4]: significantly increased
Change in MEL levels [4]: not significantly changed
Change in HGA levels [5]: Significant increases
Change in LD levels [5]: Significant increases
Change in 4-HPAC levels [6]: significantly increased
Change in 5-HT levels [6]: significant decrease
Change in 5-MTPOL levels [6]: significant increases
Change in DIOHMAL levels [6]: significantly increased
Change in MEL levels [6]: significant increases
Change 3-OHKY [7]: 0.044
Change 3-OMD [7]: 0.079
Change 4-HBAC [7]: 0.12
Change 4-HPAC [7]: 0.26
Change 4-HPLA [7]: 0.13
Change 5-HIAA [7]: −0.06
